Patent US5869460A, “Sulfated and phosphated saccharide derivatives, process for the preparation of the same and use thereof” (Sanwa Kaguku Kenkyusho Co., Ltd., priority 1995, dated 1999)

Tests used:
[1] = tested on: lung damage model induced by cobra venom factor (CVF); bleeding; test: Anti-inflammatory action to lung damage model induced by CVF: index of bleeding (hemoglobin absorbance, 541 nm, in lung homogenate supernatant); format: in vivo, Lewis rats; conditions: Rattus norvegicus, iv, 0.5 h, read-out: Inhibition rate (%), index of bleeding
Method: (§1) Anti-inflammatory action to lung damage model induced by CVF Compounds obtained by Examples and an exemplary known compound (sulfatide) were selected as Test Compounds to check an inflammatory action thereof to a lung damage model induced by cobra venom factor (CVF), in accordance with the method described by M. S. Mulligan et al ["J. IMMUNOL.", Vol.151, page 6410 (1993); and "INT. IMMUNOL.", Vol. 7, page 1107 (1995)].
(§2) Namely, the test compound was intravenously injected by an amount of 0.2 mg/rat to test animals (Lewis rats, age of 8 weeks, 5 animals in each group). After lapsed 5 minutes from administration, CVF (20U/2 ml/kg) was administered in a tail vein, and after 30 minutes, a laparotomy was carried out under nembutal anesthesia to perfuse the lung with phosphate-buffered saline (PBS, pH7.4) by injecting the same from right ventricle and to exenterate the lung. The extracted lung was homogenized with phosphate buffer (pH 7.4), centrifuged to collect a supernatant, and determined absorbance which was admitted as index of bleeding (It measures an amount of hemoglobin and thus detection wave-length was set to 541 nm).
(§3) Each inhibition rate (%) was calculated by
(§4) 100×[1-(value of test compound-value of negative control)/(value of positive control-value of negative control)].

[2] = tested on: lung damage model induced by cobra venom factor (CVF); infiltration in neutrocyte (myeloperoxidase); test: Anti-inflammatory action to lung damage model induced by CVF: myeloperoxidase activity as index of infiltration in neutrocyte; format: in vivo, Lewis rats; conditions: Rattus norvegicus, iv, 0.5 h, read-out: Inhibition rate (%), myeloperoxidase activity as index of infiltration in neutrocyte
Method: as §1, §2
On the other hand, the precipitation obtained by centrifugation was sonicated in the presence of cetrimide and centrifuged to obtain a supernatant, an activity myeloperoxidase therein being measured as an index of infiltration in neutrocyte.
as §3, §4

| Structure (SMILES) | inhibition in vivo at 0.2 mg [1] | inhibition in vivo at 0.2 mg [2] |
| --- | --- | --- |
| CC(C)CO[C@@H]1O[C@H](CO)[C@H](O)[C@H](OS(=O)(=O)O)[C@H]1O [Example 1-1, Sodium 2-methylpropyl β-D-galactopyranoside 3-sulfate] | 22% | 22% |
| CC(C)CO[C@@H]1O[C@H](COS(=O)(=O)O)[C@H](O)[C@H](OS(=O)(=O)O)[C@H]1O [Example 1-2, disodium 2-methylpropyl β-D-galactopyranoside 3,6-disulfate] | 16% | 22% |
| CC(C)CO[C@@H]1O[C@H](COS(=O)(=O)O)[C@H](O)[C@H](O)[C@H]1O [Example 2, Sodium 2-methylpropyl β-D-galactopyranoside 6-sulfate] | 36% | 32% |
| CC(C)CO[C@@H]1O[C@H](COS(=O)(=O)O)[C@H](OS(=O)(=O)O)[C@H](OS(=O)(=O)O)[C@H]1O [Example 3-1, trisodium 2-methylpropyl β-D-galactopyranoside 3,4,6-trisulfate] | 27% | 36% |
| CC(C)CO[C@@H]1O[C@H](COS(=O)(=O)O)[C@H](OS(=O)(=O)O)[C@H](OS(=O)(=O)O)[C@H]1OS(=O)(=O)O [Example 3-2, tetrasodium 2-methylpropyl β-D-galactopyranoside 2,3,4,6-tetrasulfate] | 49% | 24% |
| CCCC(CCC)CO[C@@H]1O[C@H](CO)[C@H](O)[C@H](OS(=O)(=O)O)[C@H]1O [Example 4, Sodium 2-pronylpentyl β-D-galactopyranoside 3-sulfate] | 39% | 58% |
| CCCC(CCC)CO[C@@H]1O[C@H](COS(=O)(=O)O)[C@H](O)[C@H](O)[C@H]1O [Example 5, Sodium 2-propylpentyl β-D-galactopyranoside 6-sulfate] | 52% | 47% |
| CCCC(CCC)CO[C@@H]1O[C@H](COS(=O)(=O)O)[C@H](O)[C@H](OS(=O)(=O)O)[C@H]1O [Example 6, Disodium 2-propylpentyl β-D-galactopyranoside 3,6-disulfate] | 0% | 12% |
| CCCC(CCC)CO[C@@H]1O[C@H](COS(=O)(=O)O)[C@H](O)[C@H](OS(=O)(=O)O)[C@H]1OS(=O)(=O)O [Example 7-1, Trisodium 2-propylpentyl β-D-galactopyranoside 2,3,6-trisulfate] | 36% | 26% |
| CCCC(CCC)CO[C@@H]1O[C@H](COS(=O)(=O)O)[C@H](OS(=O)(=O)O)[C@H](OS(=O)(=O)O)[C@H]1OS(=O)(=O)O [Example 7-2, tetrasodium 2-propylpentyl β-D-galactopyranoside 2,3,4,6-tetrasulfate] | 42% | 42% |
| CCCCCCCCCCCCCCCCCCCCCCC(CCCCCCCCCCCCCCCC)CO[C@@H]1O[C@H](CO)[C@H](O)[C@H](OS(=O)(=O)O)[C@H]1O (stereo partly drawn) [Example 8, Sodium 2-hexadecyltetracosyl β-D-galactopyranoside 3-sulfate] | 53% | 51% |
| CC(C)CO[C@@H]1O[C@H](CO)[C@@H](O[C@@H]2O[C@H](CO)[C@H](O)[C@H](OS(=O)(=O)O)[C@H]2O)[C@H](O)[C@H]1O [Example 9-1, sodium 2-methylpropyl O-β-D-galactopyranosyl-(1→4)-β-D-glucopyranoside 3'-sulfate] | 84% | 58% |
| CC(C)CO[C@@H]1O[C@H](CO)[C@@H](O[C@@H]2O[C@H](COS(=O)(=O)O)[C@H](O)[C@H](OS(=O)(=O)O)[C@H]2O)[C@H](O)[C@H]1O [Example 9-2, disodium 2-methylpropyl O-β-D-galactopyranosyl-(1→4)-β-D-glucopyranoside 3',6'-disulfate] | 100% | 86% |
| CCCC(CCC)CO[C@@H]1O[C@H](CO)[C@@H](O[C@@H]2O[C@H](CO)[C@H](O)[C@H](OS(=O)(=O)O)[C@H]2O)[C@H](O)[C@H]1O [Example 10-1, Sodium 2-propylpentyl O-β-D-galactopyranosyl-(1→4)-β-D-glucopyranoside 3'-sulfate] | 65% | 66% |
| CCCC(CCC)CO[C@@H]1O[C@H](CO)[C@@H](O[C@@H]2O[C@H](COS(=O)(=O)O)[C@H](O)[C@H](OS(=O)(=O)O)[C@H]2O)[C@H](O)[C@H]1O [Example 10-2, disodium 2-propylpentyl O-β-D-galactopyranosyl-(1→4)-β-D-glucopyranoside 3',6'-disulfate] | 63% | 82% |
| CCCCCCCCCCCCCCC(CCCCCCCCCCCCCC)CO[C@@H]1O[C@H](CO)[C@@H](O[C@@H]2O[C@H](COS(=O)(=O)O)[C@H](O)[C@H](OS(=O)(=O)O)[C@H]2O)[C@H](O)[C@H]1O [Example 11-1, Disodium 2-tetradecylhexadecyl O-β-D-galactopyranosyl-(1→4)-β-D-glucopyranoside 3',6'-disulfate] | 100% | 82% |
| CCCCCCCCCCCCCCC(CCCCCCCCCCCCCC)CO[C@@H]1O[C@H](COS(=O)(=O)O)[C@@H](O[C@@H]2O[C@H](COS(=O)(=O)O)[C@H](O)[C@H](OS(=O)(=O)O)[C@H]2O)[C@H](O)[C@H]1O [Example 11-2, trisodium 2-tetradecylhexadecyl O-β-D-galactopyranosyl-(1→4)-β-D-glucopyranoside 3',6',6-trisulfate] | 82% | 70% |
| CC(C)CO[C@@H]1O[C@H](COP(=O)(O)O)[C@H](OP(=O)(O)O)[C@H](OP(=O)(O)O)[C@H]1OP(=O)(O)O [Example 12, Octasodium 2-methylpropyl β-D-galactopyranoside 2,3,4,6-tetranhosphate] | 0% | 30% |
| CCCC(CCC)CO[C@@H]1O[C@H](COP(=O)(O)O)[C@H](OP(=O)(O)O)[C@H](OP(=O)(O)O)[C@H]1OP(=O)(O)O [Example 13, Octasodium 2-propylpentyl β-D-galactopyranoside 2,3,4,6-tetranhosphate] | 43% | 46% |
| CCCCCCCCCCCCCCC(CCCCCCCCCCCCCC)CO[C@@H]1O[C@H](COP(=O)(O)O)[C@H](OP(=O)(O)O)[C@H](OP(=O)(O)O)[C@H]1OP(=O)(O)O [Example 14, Octasodium 2-tetradecylhexadecyl β-D-galactopyranoside2,3,4,6-tetraphosphate] | 55% | 41% |
| CC(C)CO[C@@H]1O[C@H](CO)[C@H](OP(=O)(O)O)[C@H](OP(=O)(O)O)[C@H]1O [Example 15, Tetrasodium 2-methylpropyl β-D-galactopyranoside 3,4-diphosphate] | 45% | 44% |
| CCCC(CCC)CO[C@@H]1O[C@H](CO)[C@H](OP(=O)(O)O)[C@H](OP(=O)(O)O)[C@H]1O [Example 16, Tetrasodium 2-propylpentyl β-D-galactopyranoside 3,4-diphosphate] | 75% | 70% |
| CCCCCCCCCCCCCCC(CCCCCCCCCCCCCC)CO[C@@H]1O[C@H](CO)[C@H](OP(=O)(O)O)[C@H](OP(=O)(O)O)[C@H]1O [Example 17, Tetrasodium 2-tetradecylhexadecyl β-D-galactopyranoside 3,4-dinhosphate] | 74% | 73% |
| CCCC(CCC)CO[C@@H]1O[C@H](CO)[C@H](O)[C@H](OP(=O)(O)O)[C@H]1O [Example 18, Disodium 2-propylpentyl β-D-galactopyranoside 3-phosphate] | 50% | 51% |
| CCCC(CCC)CO[C@@H]1O[C@H](CO)[C@@H](O)[C@H](OP(=O)(O)O)[C@H]1OP(=O)(O)O [Example 19, Tetrasodium 2-propylpentyl β-D-glucopyranoside 2,3-diphosphate] | 43% | 39% |
| CCCC(CCC)CO[C@@H]1O[C@H](CO)[C@@H](OP(=O)(O)O)[C@H](OP(=O)(O)O)[C@H]1OP(=O)(O)O [Example 20, Hexasodium 2-propylpentyl δ-D-glucopyranoside 2,3,4-triphosphate] | 45% | 40% |
| CCCC(CCC)CO[C@@H]1O[C@H](CO)[C@@H](O[C@@H]2O[C@H](CO)[C@H](OP(=O)(O)O)[C@H](OP(=O)(O)O)[C@H]2O)[C@H](O)[C@H]1O [Example 21, Tetrasodium 2-propylpentyl O-β-D-galactopyranosyl-(1→4)-β-D-glucopyranoside 3',4'-diphosphate] | 64% | 52% |
